# Where a SMILES comes first, the peptide text is derived from it. Bridges are numbered along the chain shown (N, C = ends). [ ]: non-standard residue; d: D form. The star is where a group is joined. hPhe(3-Cl-4-CF3) = N[C@@H](CCc1ccc(C(F)(F)F)c(Cl)c1)C(=O)O; NPrPhe(4-CF3) = CCCN[C@@H](Cc1ccc(C(F)(F)F)cc1)C(=O)O; NMeGly(cPent) = CN[C@H](C(=O)O)C1CCCC1; Hyp = O=C(O)[C@@H]1C[C@@H](O)CN1; NMeD = CN[C@@H](CC(=O)O)C(=O)O; NMeL = CN[C@@H](CC(C)C)C(=O)O; Morpholide = C1CN(*)CCO1; Ac5c = NC1(C(=O)O)CCCC1; Aze = O=C(O)[C@@H]1CCN1; Ac4c = NC1(C(=O)O)CCC1; Sar = CNCC(=O)O
# Legend:
# [1] = molecular target: GDP-bound NRAS wild-type protein (Homo sapiens, UniProt P01111); assay: Binding to NRAS by surface plasmon resonance (SPR), Single Cycle Kinetics; conditions: SPR; for NRAS/KRAS (ratio of KD value with respect to NRAS to KD value with respect to KRAS): GDP-bound NRAS wild-type vs GDP-bound KRAS wild-type
# [2] = molecular target: GDP-bound HRAS wild-type protein (Homo sapiens, UniProt P01112); assay: Binding to HRAS by surface plasmon resonance (SPR), Single Cycle Kinetics; conditions: SPR; for HRAS/KRAS (ratio of KD value with respect to HRAS to KD value with respect to KRAS): GDP-bound HRAS wild-type vs GDP-bound KRAS wild-type
# Chain of GDP-bound HRAS wild-type protein (P01112 whole entry): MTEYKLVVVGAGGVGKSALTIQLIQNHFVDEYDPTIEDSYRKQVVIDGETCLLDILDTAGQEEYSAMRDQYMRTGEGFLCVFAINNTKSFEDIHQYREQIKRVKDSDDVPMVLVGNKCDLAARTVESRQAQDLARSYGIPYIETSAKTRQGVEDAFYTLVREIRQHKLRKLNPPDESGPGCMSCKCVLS
# Chain of GDP-bound NRAS wild-type protein (P01111 whole entry): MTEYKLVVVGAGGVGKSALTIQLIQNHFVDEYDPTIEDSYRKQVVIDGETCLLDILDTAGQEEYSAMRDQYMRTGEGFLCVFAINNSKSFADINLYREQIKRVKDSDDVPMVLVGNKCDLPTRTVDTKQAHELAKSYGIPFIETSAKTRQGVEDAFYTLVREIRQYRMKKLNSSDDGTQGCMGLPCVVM
smiles,measurement,setting,value
CCCN1C(=O)CN(C)C(=O)CN(C)C(=O)[C@H]([C@@H](C)CC)NC(=O)[C@H](CC(C)C)N(C)C(=O)C[C@@H](C(=O)N(C)C)N(C)C(=O)[C@H](C2CCCC2)N(C)C(=O)C2(CCCC2)NC(=O)[C@@H]2C[C@@H](OCC)CN2C(=O)[C@H](CCc2ccc(C(F)(F)F)c(Cl)c2)NC(=O)CN(C)C(=O)[C@@H]1Cc1ccc(C(F)(F)F)cc1 [PP0415] ([NMeL]I[Sar][Sar][NPrPhe(4-CF3)][Sar][hPhe(3-Cl-4-CF3)][Hyp](Et)[Ac5c][NMeGly(cPent)][NMeD]-NMe2; lactam N-11),NRAS/KRAS (ratio of KD value with respect to GDP-bound NRAS wild-type protein to KD value with respect to KRAS),[1]; KD ratio NRAS/KRAS,B (a compound having 3 or more and less than 10 is denoted as B)
same,HRAS/KRAS (ratio of KD value with respect to GDP-bound HRAS wild-type protein to KD value with respect to KRAS),[2]; KD ratio HRAS/KRAS,B (a compound having 3 or more and less than 10 is denoted as B)
CCO[C@@H]1C[C@H]2C(=O)NC3(CCC3)C(=O)N(C)[C@@H](C3CCCC3)C(=O)N(C)[C@H](C(=O)N(C)C)CC(=O)N(C)[C@@H](Cc3ccc(F)c(F)c3)C(=O)N[C@@H]([C@@H](C)CC)C(=O)N(C)CC(=O)N(C)[C@H]3CCCCCN(C3=O)[C@@H](Cc3ccc(C(F)(F)F)cc3)C(=O)N(C)CC(=O)N[C@@H](CCc3cc(F)c(C(F)(F)F)c(F)c3)C(=O)N2C1 [PP0937],NRAS/KRAS (ratio of KD value with respect to NRAS to KD value with respect to KRAS),[1]; KD ratio,B (a compound having 3 or more and less than 10 is denoted as B)
same,HRAS/KRAS (ratio of KD value with respect to HRAS to KD value with respect to KRAS),[2]; KD ratio,B (a compound having 3 or more and less than 10 is denoted as B)
CCO[C@@H]1C[C@H]2C(=O)NC3(CCC3)C(=O)N(C)[C@@H](C3CCCC3)C(=O)N(C)[C@H](C(=O)N(C)CC)CC(=O)N(C)[C@@H](CC(F)F)C(=O)N[C@@H]([C@@H](C)CC)C(=O)N(C)CC(=O)N(C)[C@H]3C/C=C\CCN(C3=O)[C@@H](Cc3ccc(C(F)(F)F)cc3)C(=O)N(C)CC(=O)N[C@@H](CCc3cc(F)c(C(F)(F)F)c(F)c3)C(=O)N2C1 [PP1303],NRAS/KRAS (ratio of KD value for GDP-bound NRAS wild-type protein to KD value for KRAS),[1]; KD ratio class,AA (a compound having 20 or more is denoted as AA)
same,HRAS/KRAS (ratio of KD value for GDP-bound HRAS wild-type protein to KD value for KRAS),[2]; KD ratio class,A (a compound having 10 or more and less than 20 is denoted as A)
CCCN1C(=O)[C@@H]2CCN2C(=O)CN(C)C(=O)[C@H]([C@@H](C)CC)NC(=O)[C@H](CC(C)C)N(C)C(=O)C[C@@H](C(=O)N2CCOCC2)NC(=O)[C@H](C2CCCC2)N(C)C(=O)C2(CCC2)NC(=O)[C@@H]2C[C@@H](OCC)CN2C(=O)[C@H](CCc2ccc(C(F)(F)F)c(Cl)c2)NC(=O)CN(C)C(=O)[C@@H]1Cc1ccc(C(F)(F)F)cc1 [PP0354] ([NMeL]I[Sar][Aze][NPrPhe(4-CF3)][Sar][hPhe(3-Cl-4-CF3)][Hyp](Et)[Ac4c][NMeGly(cPent)]D-Morpholide; lactam N-11),NRAS/KRAS (ratio of KD for GDP-bound NRAS wild-type to KD for KRAS),[1]; KD ratio NRAS/KRAS,C (A compound having a KD ratio of 0.1 or more and less than 3 is denoted as C)
same,HRAS/KRAS (ratio of KD for GDP-bound HRAS wild-type to KD for KRAS),[2]; KD ratio HRAS/KRAS,B (a compound having 3 or more and less than 10 is denoted as B)
CCO[C@@H]1C[C@H]2C(=O)NC3(CCC3)C(=O)N(C)[C@@H](C3CCCC3)C(=O)N(C)[C@H](C(=O)N(C)C)CC(=O)N(C)[C@@H](CC)C(=O)N[C@@H]([C@@H](C)CC)C(=O)N(C)CC(=O)N(C)[C@H]3CCCCN(C3=O)[C@@H](Cc3ccc(C(F)(F)F)cc3)C(=O)N(C)CC(=O)N[C@@H](CCc3ccc(C(F)(F)F)c(OC)c3)C(=O)N2C1 [PP0884],NRAS/KRAS (ratio of KD value with respect to NRAS to KD value with respect to KRAS),[1]; KD ratio,C (A compound having a KD ratio of 0.1 or more and less than 3 is denoted as C)
same,HRAS/KRAS (ratio of KD value with respect to HRAS to KD value with respect to KRAS),[2]; KD ratio,C (A compound having a KD ratio of 0.1 or more and less than 3 is denoted as C)
CCCOC[C@H]1C(=O)N[C@@H]([C@@H](C)CC)C(=O)N2CCC[C@H]2C(=O)N(C)[C@H]2C/C=C\CCN(C2=O)[C@@H](Cc2ccc(C)cc2)C(=O)N(C)CC(=O)N[C@@H](CCc2ccc(C(F)(F)F)c(OC)c2)C(=O)N2C[C@H](OCC)C[C@H]2C(=O)N(C)C2(CCC2)C(=O)N(C)[C@@H](C2CCCC2)C(=O)N(C)[C@H](C(=O)N(C)C)CC(=O)N1C [PP2334],NRAS/KRAS (ratio of KD value with respect to NRAS to KD value with respect to KRAS),[1],A (a compound having 10 or more and less than 20 is denoted as A)
same,HRAS/KRAS (ratio of KD value with respect to HRAS to KD value with respect to KRAS),[2],B (a compound having 3 or more and less than 10 is denoted as B)
CCO[C@@H]1C[C@H]2C(=O)NC3(CCCC3)C(=O)N(C)[C@@H](C3CCCC3)C(=O)N(C)[C@H](C(=O)N(C)C)CC(=O)N(C)[C@@H](CC(C)C)C(=O)N[C@@H]([C@@H](C)CC)C(=O)N(C)CC(=O)N(C)[C@H]3CC(C)=C(C)CN(C3=O)[C@@H](Cc3ccc(C(F)(F)F)cc3)C(=O)N(C)CC(=O)N[C@@H](CCc3cc(F)c(C(F)(F)F)c(F)c3)C(=O)N2C1 [PP1045],NRAS/KRAS (ratio of KD value with respect to NRAS to KD value with respect to KRAS),[1]; KD ratio,C (A compound having a KD ratio of 0.1 or more and less than 3 is denoted as C)
same,HRAS/KRAS (ratio of KD value with respect to HRAS to KD value with respect to KRAS),[2]; KD ratio,C (A compound having a KD ratio of 0.1 or more and less than 3 is denoted as C)

# Source: patent US20250230193A1, “CYCLIC COMPOUND HAVING SELECTIVE KRAS INHIBITORY EFFECT ON HRAS AND NRAS” (CHUGAI SEIYAKU KABUSHIKI KAISHA, priority 2022, published 2025)
